From patent publication US20240285630A1, “Methods and compositions for improving exercise performance” (MEZZION PHARMA CO., LTD., priority 2021, published 2024)
Values joined by “and” are separate entries in the source; they are usually repeats but may differ in a detail not shown here. Equal values may be shown once.

What was measured:
Type in all cases: in vivo, human
[1] = test system: adolescents with Fontan physiology; assay: FUEL Trial cardiopulmonary exercise test (CPET), cycle ergometer ramp protocol; conditions: for Change in VE/VCO2 at VAT: 26 week - baseline; for Peak VO2 (% change), difference in change (treatment - placebo): natural log transformed data
From the text: The primary outcome was the change in oxygen consumption at peak exercise (max or peak VO2) from baseline to the 26-week visit. Secondary exercise outcomes included change in additional measures at maximal exertion, as well as change in measures of submaximal exercise at the ventilatory anaerobic threshold (VAT). The primary outcome for clinical secondary aims included change in myocardial performance index (MPI), an echocardiographically-derived measure of systolic and diastolic ventricular function, change in log-transformed reactive hyperemia index (InRHI), a PAT-derived measure of peripheral vascular function, and change in log-transformed serum BNP level. Safety was monitored through adverse event reports, which were collected according to a pre-specified protocol of study coordinator outreach, and through ad hoc patient and family communication with members of the study team at each site.
(§1) Baseline clinical testing completed before drug initiation included a blood draw to measure brain-type natriuretic peptide (BNP) level, a cardiopulmonary exercise test (CPET) using a standardized cycle ergometer ramp protocol, a standardized echocardiogram, and an assessment of peripheral vascular function using peripheral arterial tonometry (PAT) measured by finger cuff (EndoPAT; Itamar Medical, Israel). Participants who achieved maximal effort, defined as respiratory exchange ratio (RER)≥1.10 at peak exercise during CPET, were eligible for randomization and study drug initiation. […] End-of-study clinical testing included repeat measurement of serum BNP, CPET, echocardiogram, and PAT.
The primary analysis used the intention-to-treat population to evaluate the difference in the change in the primary outcome between treatment arms. This difference was assessed with an analysis of covariance (ANCOVA) with fixed factors for ventricular morphology (single left versus single right or mixed) and treatment group, with a continuous covariate of baseline max VO2. […] Secondary analyses included participants who successfully completed the protocol with measurable values at each of the secondary endpoints. Secondary outcomes of continuous data points were analyzed in the manner described for the primary outcome. In order to assess the generalizability of findings at the ventilatory anaerobic threshold, demographic and clinical characteristics were compared between participants without paired VO2 at VAT data and those comprising the remainder of the cohort.
The FUEL Trial was a Phase III clinical trial conducted at 30 centers. […] The primary outcome was the between group difference in change in oxygen consumption at peak exercise. Secondary outcomes included between group differences in changes in sub-maximal exercise at the ventilatory anaerobic threshold (VAT), the myocardial performance index (MPI), the natural log of the reactive hyperemia index (InRHI), and serum brain-type natriuretic peptide (BNP).
Baseline clinical testing completed before drug initiation included a blood draw to measure brain-type natriuretic peptide (BNP) level, a cardiopulmonary exercise test (CPET) using a standardized cycle ergometer ramp protocol (previously described in children and adolescents with Fontan physiology, Sleeper L A, Anderson P, Hsu D T, Mahony L, McCrindle B W, Roth S J, Saul J P, Williams R V, Geva T, Colan S D, Clark B J and Pediatric Heart Network I. Design of a large cross-sectional study to facilitate future clinical trials in children with the Fontan palliation. Am Heart J. 152(3):427-433 (September 2006), a standardized echocardiogram, and an assessment of peripheral vascular function using peripheral arterial tonometry (PAT) measured by finger cuff (EndoPAT; Itamar Medical, Israel). Participants who achieved maximal effort, defined as respiratory exchange ratio (RER)>1.10 at peak exercise during CPET, were eligible for randomization and study drug initiation. […]

[2] = test system: adolescents with Fontan physiology; assay: FUEL Trial resting data (heart rate, blood pressure, oxygen saturation); conditions: baseline to 26-week
From the text: as §1
The primary analysis used the intention-to-treat population to evaluate the difference in the change in the primary outcome between treatment arms. This difference was assessed with an analysis of covariance (ANCOVA) with fixed factors for ventricular morphology (single left versus single right or mixed) and treatment group, with a continuous covariate of baseline max VO2. For those without data at the 26-week visit, this value was imputed as equal to the baseline value (no change). […] Secondary outcomes of continuous data points were analyzed in the manner described for the primary outcome. […]

[3] = test system: adolescents with Fontan physiology; assay: FUEL Trial serum brain-type natriuretic peptide (BNP) level; conditions: ANCOVA; listed as udenafil
[4] = baseline peak VO2 <80% predicted, N=251
[5] = baseline peak VO2 <80% predicted, N=301
[6] = baseline peak VO2 ≥80% predicted, N=66
[7] = excluding those with baseline peak VO2 ≥80% predicted, n=122
[8] = excluding those with baseline peak VO2 ≥80% predicted, n=150
[9] = post-hoc subgroup excluding baseline peak VO2 ≥80% of predicted
[10] = subgroup with baseline peak VO2 ≥80% of predicted, each treatment group

SMILES: CCCOc1ccc(S(=O)(=O)NCCC2CCCN2C)cc1-c1nc2c(CCC)nn(C)c2c(=O)[nH]1 (stereo not shown) [Udenafil, udenafil]
- Increase in peak VO2 (VO2 max), percent ([1]; 87.5 mg twice daily, baseline to 26-week, ITT): 2.8%
- Increase in peak VO2 (VO2 max), unindexed ([1]; 87.5 mg twice daily, baseline to 26-week, ITT n=200, p=0.071 vs placebo): 44 mL/min and 44 ± 245 mL/min
- Anaerobic threshold oxygen consumption indexed to weight, 26-week ([1]; 26-week value, mean ± SD, n=185): 18.20 ± 4.51 (185) mL/kg/min
- Peak exercise oxygen consumption indexed to weight, 26-week ([1]; 26-week value, mean ± SD, n=200): 27.61 ± 6.87 (200) mL/kg/min
- Number needed to treat (NNT) for an increase in peak VO2 ([1]; ITT analysis): 10
- Patients with an increase in peak VO2, number ([1]; ITT analysis without imputation of missing data): 86
- Patients with an increase in peak VO2, percent ([1]; ITT analysis without imputation of missing data, p=0.075 vs placebo): 46%
- Peak VO2 indexed to weight, change 26 week - baseline ([1]; all participants (ITT) n=200, p=0.092 vs placebo): −0.23 ± 4.06 (200) mL/kg/min and −0.23 mL/kg/min
- VO2 at VAT indexed to weight, change 26 week - baseline ([1]; all participants n=170, p=0.012 vs placebo): −0.07 ± 3.0 (170) mL/kg/min and −0.07 mL/kg/min
- % Predicted Peak VO2, 26 week - baseline ([1]; all participants n=189): −0.90
- Peak VO2 (% change, ml/kg/min), 26 week - baseline ([1]; all participants n=200): −1.0%
- Change in VE/VCO2 at VAT ([1]; all participants): −0.76
- Change in VE/VCO2 at VAT ([1]; all participants, listed as udenafil): −0.8
- Change in work rate at VAT ([1]; all participants, baseline to 26-week): 3.46 Watts
- Work at VAT, difference in change (treatment - placebo) ([1]; baseline peak VO2 <80% predicted, N=243): 3.54 watts
- VE/VCO2 at VAT, difference in change (treatment - placebo) [1, 4]: −0.66
- VO2 at VAT, difference in change (treatment - placebo) [1, 4]: 0.77 mL/min/kg
- Peak VO2, difference in change (treatment group - placebo group) [1, 5]: 1.12 mL/min/kg
- Peak VO2 (% change), difference in change (treatment - placebo) [1, 5]: 5.0%
- Peak VO2, difference in change (treatment group - placebo group) ([1]; baseline peak VO2 ≥80% predicted (Super Fontan), N=77): -0.89 mL/min/kg
- Peak VO2, difference in change (treatment group - placebo group) ([1]; baseline peak VO2 ≥80% predicted (Super Fontan), N=77, listed as udenafil): no significant udenafil treatment effect
- VE/VCO2 at VAT, difference in change (treatment - placebo) [1, 6]: −1.18
- VO2 at VAT, difference in change (treatment - placebo) [1, 6]: 0.38 mL/min/kg
- Work at VAT, difference in change (treatment - placebo) [1, 6]: 3.15 watts
- Peak VO2 (% change), difference in change (treatment - placebo) ([1]; baseline peak VO2 ≥80% predicted, N=77): −2.39%
- Decrease in VE/VCO2 at VAT, percent ([1]; baseline to 26-week): 2.1%
- Improvement in work rate at VAT, percent ([1]; baseline to 26-week): 5.5% and 5.2%
- Decrease in VE/VCO2 at VAT (improved ventilatory efficiency) ([1]; baseline to 26-week, given as size of decrease): 0.8
- Peak exercise heart rate, change ([1]; baseline to 26-week, mean ± SD): −1.4 ± 11 bpm
- Peak exercise minute ventilation, change ([1]; baseline to 26-week, mean ± SD): 1.2 ± 14 L/min
- Peak exercise oxygen saturation, change ([1]; baseline to 26-week, mean ± SD): 0.4 ± 3.4%
- Peak exercise respiratory rate, change ([1]; baseline to 26-week, mean ± SD): −1.1 ± 10 breaths/min
- Peak exercise minute ventilation, change ([1]; baseline to 26-week, mean ± SD, listed as udenafil): no difference in the change in minute ventilation between groups
- Work at VAT, 26 week - baseline ([1]; excluding those with baseline peak VO2 ≥80% predicted, n=119): 3.80 watts
- VE/VCO2 at VAT, 26 week - baseline [1, 7]: −0.61
- VO2 at VAT, 26 week - baseline [1, 7]: 0.11 mL/min/kg
- % Predicted Peak VO2, 26 week - baseline [1, 8]: 0.43
- Peak VO2 (% change, ml/kg/min), 26 week - baseline [1, 8]: 0.4%
- Peak VO2, 26 week - baseline [1, 8]: 0.23 mL/min/kg
- Number needed to treat (NNT) for an increase in peak VO2 [1, 9]: 8.2
- Patients with an increase in peak VO2, number [1, 9]: 75
- Patients with an increase in peak VO2, percent ([1]; post-hoc subgroup excluding baseline peak VO2 ≥80% of predicted, p=0.037 vs placebo): 50%
- Patients with negative change in peak VO2, percent [1, 10]: 71 to 72%
- Patients with positive change in peak VO2, percent [1, 10]: 28 to 29%
- Change in resting heart rate, respiratory rate, or systolic blood pressure, udenafil vs placebo [2]: no difference
- Log brain natriuretic peptide, difference LS Mean (SE), udenafil vs placebo [3]: not different between groups
